# In ChEMBL document CHEMBL3352066, “Pharmacological characterization of actin-binding (-)-doliculide” (Bioorg Med Chem, 2014):
# Activity calls are given as the source filed them. The rule behind the calls is not given here.
# Key:
# MDA-MB-231 [1] = assay: Induction of apoptosis in human MDA-MB-231 cells assessed as reduction of pro-caspase9 level after 48 hrs by Western blot analysis; assay type: functional, cell-based
# MDA-MB-231 [2] = assay: Induction of apoptosis in human MDA-MB-231 cells after 24 hrs using propidium iodide by flow cytometry; assay type: functional, cell-based
# MCF7 [3] = assay: Induction of apoptosis in human MCF7 cells assessed as reduction of pro-caspase9 level after 48 hrs by Western blot analysis; assay type: functional, cell-based
# MDA-MB-231 [4] = assay: Antiproliferative activity against human MDA-MB-231 cells after 72 hrs by CellTiter-Blue assay; assay type: functional, cell-based
# [5] = biological target: Actin, cytoplasmic 1 (Homo sapiens) (UniProt P60709); assay: Inhibition of actin organization in human MCF7 cells transfected with GFP-tagged human beta-actin assessed as formation of actin aggregates at 300 to 500 nM after 24 hrs by FRAP method; assay type: cell-based
# [6] = biological target: Actin, cytoplasmic 1 (Homo sapiens) (UniProt P60709); assay: Inhibition of actin organization in human MCF7 cells transfected with GFP-tagged human beta-actin assessed as reduction of actin stress fibers at 100 nM after 24 hrs by FRAP method; assay type: cell-based
# MCF7 [7] = assay: Antiproliferative activity against human MCF7 cells after 72 hrs by CellTiter-Blue assay; assay type: functional, cell-based
# [8] = biological target: Actin, cytoplasmic 1 (Homo sapiens) (UniProt P60709); assay: Inhibition of actin organization in human MCF7 cells transfected with GFP-tagged human beta-actin assessed as reduction of g-actin monomers at 100 nM after 30 mins by FRAP method; assay type: cell-based
# MCF7 [9] = assay: Induction of apoptosis in human MCF7 cells after 24 hrs using propidium iodide by flow cytometry; assay type: functional, cell-based
# [10] = biological target: Actin, cytoplasmic 1 (Homo sapiens) (UniProt P60709); assay: Inhibition of actin organization in human MDA-MB-231 cells transfected with GFP-tagged human beta-actin assessed as reduction of actin stress fibers at 100 nM after 24 hrs by FRAP method; assay type: cell-based
# MDA-MB-231 [11] = assay: Antimigratory activity against human MDA-MB-231 cells up to 10 hrs; assay type: functional, cell-based
# MCF7 [12] = assay: Induction of apoptosis in human MCF7 cells assessed as PARP cleavage after 48 hrs by Western blot analysis; assay type: functional, cell-based
# MDA-MB-231 [13] = assay: Induction of apoptosis in human MDA-MB-231 cells assessed as PARP cleavage after 48 hrs by Western blot analysis; assay type: functional, cell-based
# [14] = biological target: Actin, cytoplasmic 1 (Homo sapiens) (UniProt P60709); assay: Inhibition of actin organization in human MCF7 cells transfected with GFP-tagged human beta-actin assessed as formation of actin aggregates at 300 nM after 30 mins by FRAP method; assay type: cell-based
# [15] = biological target: Actin, cytoplasmic 1 (Homo sapiens) (UniProt P60709); assay: Inhibition of actin organization in human MDA-MB-231 cells transfected with GFP-tagged human beta-actin assessed as formation of actin aggregates at 300 to 500 nM after 24 hrs by FRAP method; assay type: cell-based
smiles,measurement,setting,value
CC(C)[C@@H]1C[C@H](O)[C@H](C)C[C@H](C)C[C@H](C)C(=O)NCC(=O)N(C)[C@H](Cc2ccc(O)c(I)c2)C(=O)O1,Activity,MDA-MB-231 [1],Dose-dependent effect
same,Activity,MDA-MB-231 [2],Dose-dependent effect
same,Activity,MCF7 [3],Dose-dependent effect
same,inhibition,MDA-MB-231 [4],Dose-dependent effect
same,IC50,"MDA-MB-231 [4]; MDA-MB-231, 72 h",77 nM
same,inhibition,[5],Active
same,inhibition,[6],Active
same,inhibition,MCF7 [7],Dose-dependent effect
same,IC50,"MCF7 [7]; MCF7, 72 h",93 nM
same,inhibition,[8],Active
same,Activity,MCF7 [9],Dose-dependent effect
same,inhibition,[10],Active
same,inhibition,MDA-MB-231 [11],Dose-dependent effect
same,Activity,MCF7 [12],Active
same,Activity,MDA-MB-231 [13],Active
same,inhibition,[14],Active
same,inhibition,[15],Active
